pEC50: −log10 of the molar value.

Consider two molecules from ChEMBL document CHEMBL5727404, “Toll-like receptor 7 (TLR7) agonists having a heterobiaryl moiety, conjugates thereof, and methods and uses therefor” (2019).

In this test the target is T1, Toll-like receptor 7 (Homo sapiens, UniProt Q9NYK1).
T1 sequence (Q9NYK1 whole entry): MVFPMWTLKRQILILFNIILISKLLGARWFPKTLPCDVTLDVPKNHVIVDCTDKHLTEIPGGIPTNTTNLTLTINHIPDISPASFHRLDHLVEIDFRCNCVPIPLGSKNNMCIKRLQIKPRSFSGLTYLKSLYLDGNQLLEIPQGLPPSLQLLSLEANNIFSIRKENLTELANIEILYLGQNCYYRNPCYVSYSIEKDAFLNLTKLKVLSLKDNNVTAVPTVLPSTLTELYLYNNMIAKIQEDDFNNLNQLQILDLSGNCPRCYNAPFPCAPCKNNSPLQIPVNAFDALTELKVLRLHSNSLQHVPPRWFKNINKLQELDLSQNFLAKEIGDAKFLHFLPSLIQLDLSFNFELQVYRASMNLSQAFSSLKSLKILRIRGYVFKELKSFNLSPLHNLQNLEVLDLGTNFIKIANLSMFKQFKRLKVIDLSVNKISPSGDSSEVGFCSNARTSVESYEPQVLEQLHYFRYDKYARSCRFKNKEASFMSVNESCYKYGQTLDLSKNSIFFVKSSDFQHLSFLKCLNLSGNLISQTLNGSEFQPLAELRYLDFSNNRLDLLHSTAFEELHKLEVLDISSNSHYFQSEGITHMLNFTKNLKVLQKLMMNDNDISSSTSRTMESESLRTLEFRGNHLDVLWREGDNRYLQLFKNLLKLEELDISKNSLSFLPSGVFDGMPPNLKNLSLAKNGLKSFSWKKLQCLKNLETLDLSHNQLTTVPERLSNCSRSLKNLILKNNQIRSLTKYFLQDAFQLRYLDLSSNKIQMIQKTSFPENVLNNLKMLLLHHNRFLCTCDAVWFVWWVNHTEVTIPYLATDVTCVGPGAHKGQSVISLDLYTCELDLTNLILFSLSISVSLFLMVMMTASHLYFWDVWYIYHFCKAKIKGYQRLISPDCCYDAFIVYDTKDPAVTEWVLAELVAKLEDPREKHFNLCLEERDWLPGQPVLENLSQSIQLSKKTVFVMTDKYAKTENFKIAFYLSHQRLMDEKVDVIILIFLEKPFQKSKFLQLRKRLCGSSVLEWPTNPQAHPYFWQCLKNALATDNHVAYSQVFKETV
The experiment in a line: HEK-Blue™ TLR7 cells were added to each well of a 384-well tissue-culture plate (15,000 cells per well) and incubated 16-18 h at 37° C., 5% CO2. Compounds (100 nl) were dispensed into wells containing the HEK-Blue™ TLR cells and the treated cells were incubated at 37° C., 5% CO2. After 18 h treatment ten microliters of freshly-prepared Quanti-Blue reagent (Invivogen) was added to each well, incubated for 30 min (37° C., 5% CO2) and SEAP levels measured using an Envision plate reader (OD=620 nm).

One may read the pEC50 as the negative decadic logarithm of the EC50, by convention in mol/L. Read a low pEC50 as a high EC50. Regarding `CCCCOc1nc(N)c2nc(O)n(Cc3ccc(-c4csc(CN)c4)nc3)c2n1`, the pEC50 was 7.28.
In the case of `CCCCOc1nc(N)c2nc(O)n(Cc3ccc(-c4csc(CN)c4)cc3)c2n1` it was 7.23.
